Results published in ChEMBL document CHEMBL5036339, “Synthesis and biological evaluation of indole-based peptidomimetics as antibacterial agents against Gram-positive bacteria” (Eur J Med Chem, 2021).
Converted amounts (≈) assume the structure as drawn. The source made the active and inactive calls. The calls are words filed in the database; no cut-off is given here.

Key:
Staphylococcus aureus [1] = assay: Bactericidal activity against Staphylococcus aureus NCTC 10442 assessed as log reduction in bacterial growth at 1X MIC measured within 24 hr by time-kill kinetic assay; format: functional
Staphylococcus aureus [2] = assay: Antibacterial activity against methicillin-resistant Staphylococcus aureus NCTC 10442 assessed as reduction in bacterial growth in presence of sodium salt; format: functional
Staphylococcus aureus [3] = assay: Antibacterial activity against Staphylococcus aureus ATCC29213 assessed as reduction in bacterial growth in presence of potassium salt; format: functional
Staphylococcus aureus [4] = assay: Antibacterial activity against Staphylococcus aureus ATCC29213 assessed as reduction in bacterial growth in presence of sodium salt; format: functional
Staphylococcus aureus [5] = assay: Antibacterial activity against methicillin-resistant Staphylococcus aureus N315 assessed as reduction in bacterial growth in presence of sodium salt; format: functional
Staphylococcus aureus [6] = assay: Antibacterial activity against methicillin-resistant Staphylococcus aureus N315 assessed as reduction in bacterial growth in presence of ferric salt; format: functional
[7] = Cytotoxicity against mouse NCTC clone 929 cells assessed as reduction in cell viability at 25 ug/ml after 24 hrs by CCK8 assay; format: cell-based; conditions: nctc clone 929, 24 h, at 25 µg/mL
Staphylococcus aureus [8] = assay: Antibacterial activity against methicillin-resistant Staphylococcus aureus NCTC 10442 assessed as reduction in bacterial growth in presence of zinc salt; format: functional
Cell membrane = assay: Induction of membrane disruption in […] assessed as increase in red fluorescence at 12.48 ug/ml by SYTO 9/PI staining based flourescence microscopy method; format: functional; conditions: dose 12.48 µg/ml
Staphylococcus aureus [9] = assay: Antibacterial activity against methicillin-resistant Staphylococcus aureus NCTC 10442 assessed as reduction in bacterial growth in presence of ferric salt; format: functional
Staphylococcus aureus [10] = assay: Antibacterial activity against methicillin-resistant Staphylococcus aureus N315 assessed as reduction in bacterial growth in presence of calcium salt; format: functional
Escherichia coli = assay: Antibacterial activity against Escherichia coli ATCC25922 assessed as reduction in bacterial growth; format: functional
Staphylococcus aureus [11] = assay: Antibacterial activity against methicillin-resistant Staphylococcus aureus N315 assessed as reduction in bacterial growth in presence of ferrous salt; format: functional
Staphylococcus aureus [12] = assay: Antibacterial activity against Staphylococcus aureus ATCC29213 assessed as reduction in bacterial growth in presence of magnesium salt; format: functional
Staphylococcus aureus [13] = assay: Bactericidal activity against Staphylococcus aureus NCTC 10442 assessed as log reduction in bacterial growth at 8X MIC measured within 0.5 hr by time-kill kinetic assay; format: functional
J774.A1 [14] = assay: Cytotoxicity against mouse J774.A1 cells assessed as reduction in cell viability at 6.25 ug/ml after 24 hrs by CCK8 assay; format: cell-based; conditions: j774.a1, 24 h, at 6.25 µg/mL
[15] = Cytotoxicity against mouse NCTC clone 929 cells assessed as reduction in cell viability at 12.5 ug/ml after 24 hrs by CCK8 assay; format: cell-based; conditions: nctc clone 929, 24 h, at 12.5 µg/mL
Staphylococcus aureus [16] = assay: Antibacterial activity against methicillin-resistant Staphylococcus aureus N315 assessed as reduction in bacterial growth in presence of potassium salt; format: functional
Staphylococcus aureus [17] = assay: Bactericidal activity against Staphylococcus aureus NCTC 10442 assessed as log reduction in bacterial growth at 2X MIC measured within 24 hr by time-kill kinetic assay; format: functional
Staphylococcus aureus [18] = assay: Antibacterial activity against methicillin-resistant Staphylococcus aureus N315 assessed as reduction in bacterial growth in presence of zinc salt; format: functional
Staphylococcus aureus [19] = assay: Antibacterial activity against methicillin-resistant Staphylococcus aureus NCTC 10442 assessed as reduction in bacterial growth in presence of magnesium salt; format: functional
Staphylococcus aureus [20] = assay: Antibacterial activity against methicillin-resistant Staphylococcus aureus NCTC 10442 assessed as reduction in bacterial growth in presence of calcium salt; format: functional
[21] = Cytotoxicity against mouse NCTC clone 929 cells assessed as reduction in cell viability at 3.125 ug/ml after 24 hrs by CCK8 assay; format: cell-based; conditions: nctc clone 929, 24 h, at 3.125 µg/mL
Staphylococcus aureus [22] = assay: Antibacterial activity against Staphylococcus aureus ATCC29213 assessed as reduction in bacterial growth in presence of zinc salt; format: functional
J774.A1 [23] = assay: Cytotoxicity against mouse J774.A1 cells assessed as reduction in cell viability at 50 ug/ml after 24 hrs by CCK8 assay; format: cell-based; conditions: j774.a1, 24 h, at 50 µg/mL
Staphylococcus aureus [24] = assay: Antibacterial activity against Staphylococcus aureus ATCC29213 assessed as reduction in bacterial growth in presence of ferrous salt; format: functional
HEK293 [25] = assay: Cytotoxicity against human HEK293 cells assessed as reduction in cell viability at 50 ug/ml after 24 hrs by CCK8 assay; format: cell-based; conditions: hek293, 24 h, at 50 µg/mL
Staphylococcus aureus [26] = assay: Antibacterial activity against methicillin-resistant Staphylococcus aureus NCTC 10442 assessed as reduction in bacterial growth in presence of potassium salt; format: functional
HEK293 [27] = assay: Cytotoxicity against human HEK293 cells assessed as reduction in cell viability at 12.5 ug/ml after 24 hrs by CCK8 assay; format: cell-based; conditions: hek293, 24 h, at 12.5 µg/mL
J774.A1 [28] = assay: Cytotoxicity against mouse J774.A1 cells assessed as reduction in cell viability at 3.125 ug/ml after 24 hrs by CCK8 assay; format: cell-based; conditions: j774.a1, 24 h, at 3.125 µg/mL
Staphylococcus aureus [29] = assay: Antibacterial activity against methicillin-resistant Staphylococcus aureus N315 assessed as reduction in bacterial growth; format: functional
[30] = Hemolytic activity in rabbit erythrocytes assessed as concentration required to cause 50% hemolysis; format: ADME, cell-based, Oryctolagus cuniculus, Erythrocyte
Staphylococcus aureus [31] = assay: Induction of drug resistance in Staphylococcus aureus ATCC29213 assessed as reduction in bacterial growth at 0.5 times MIC measured after 24 hr; format: functional, organism-based
HEK293 [32] = assay: Cytotoxicity against human HEK293 cells assessed as reduction in cell viability at 6.25 ug/ml after 24 hrs by CCK8 assay; format: cell-based; conditions: hek293, 24 h, at 6.25 µg/mL
J774.A1 [33] = assay: Cytotoxicity against mouse J774.A1 cells assessed as reduction in cell viability at 12.5 ug/ml after 24 hrs by CCK8 assay; format: cell-based; conditions: j774.a1, 24 h, at 12.5 µg/mL
Staphylococcus aureus [34] = assay: Antibacterial activity against Staphylococcus aureus ATCC29213 assessed as reduction in bacterial growth in presence of calcium salt; format: functional
Staphylococcus aureus [35] = assay: Antibacterial activity against methicillin-resistant Staphylococcus aureus NCTC 10442 assessed as reduction in bacterial growth; format: functional
HEK293 [36] = assay: Cytotoxicity against human HEK293 cells assessed as reduction in cell viability at 3.125 ug/ml after 24 hrs by CCK8 assay; format: cell-based; conditions: hek293, 24 h, at 3.125 µg/mL
Staphylococcus aureus [37] = assay: Antibacterial activity against methicillin-resistant Staphylococcus aureus N315 assessed as reduction in bacterial growth in presence of magnesium salt; format: functional
[38] = Cytotoxicity against mouse NCTC clone 929 cells assessed as reduction in cell viability at 50 ug/ml after 24 hrs by CCK8 assay; format: cell-based; conditions: nctc clone 929, 24 h, at 50 µg/mL
Staphylococcus aureus [39] = assay: Bactericidal activity against Staphylococcus aureus NCTC 10442 assessed as log reduction in bacterial growth at 4X MIC measured within 0.5 hr by time-kill kinetic assay; format: functional; conditions: time hrs <=0.5
HEK293 [40] = assay: Cytotoxicity against human HEK293 cells assessed as reduction in cell viability at 25 ug/ml after 24 hrs by CCK8 assay; format: cell-based; conditions: hek293, 24 h, at 25 µg/mL
J774.A1 [41] = assay: Cytotoxicity against mouse J774.A1 cells assessed as reduction in cell viability at 25 ug/ml after 24 hrs by CCK8 assay; format: cell-based; conditions: j774.a1, 24 h, at 25 µg/mL
Staphylococcus aureus [42] = assay: Antibacterial activity against methicillin-resistant Staphylococcus aureus NCTC 10442 assessed as reduction in bacterial growth in presence of ferrous salt; format: functional
[43] = Cytotoxicity against mouse NCTC clone 929 cells assessed as reduction in cell viability at 6.25 ug/ml after 24 hrs by CCK8 assay; format: cell-based; conditions: nctc clone 929, 24 h, at 6.25 µg/mL
Staphylococcus aureus [44] = assay: In vivo antibacterial activity against Staphylococcus aureus ATCC29213 in mouse bacterial keratitis model assessed as log reduction in bacterial load in infected cornea at 0.5%,TOP after 24 hour infection; format: functional, organism-based
Staphylococcus aureus [45] = assay: Antibacterial activity against Staphylococcus aureus ATCC29213 assessed as reduction in bacterial growth in presence of ferric salt; format: functional
Staphylococcus aureus [46] = assay: Antibacterial activity against Staphylococcus aureus ATCC29213 assessed as reduction in bacterial growth; format: functional

## CC(C)=CCC/C(C)=C/Cn1cc(CC(=O)NCCN(CCNC(=N)N)CCNC(=N)N)c2ccccc21
Staphylococcus aureus [1]
  Activity: 3 CFU
Staphylococcus aureus [2]
  MIC: 1.56 mg/L
Staphylococcus aureus [3]
  MIC: 1.56 mg/L
Staphylococcus aureus [4]
  MIC: 1.56 mg/L
Staphylococcus aureus [5]
  MIC: 1.56 mg/L
Staphylococcus aureus [6]
  MIC: 1.56 mg/L
[7]
  Activity: 71.16%
Staphylococcus aureus [8]
  MIC: 1.56 mg/L
Cell membrane
  Activity: Active
Staphylococcus aureus [9]
  MIC: 1.56 mg/L
Staphylococcus aureus [10]
  MIC: 1.56 mg/L
Escherichia coli
  MIC: 12.5 mg/L (≈ 23.9 µM)
Staphylococcus aureus [11]
  MIC: 1.56 mg/L
Staphylococcus aureus [12]
  MIC: 1.56 mg/L
Staphylococcus aureus [13]
  Activity: 3 CFU
J774.A1 [14]
  Activity: 95.8%
[15]
  Activity: 72.66%
Staphylococcus aureus [16]
  MIC: 1.56 mg/L
Staphylococcus aureus [17]
  Activity: 3 CFU
Staphylococcus aureus [18]
  MIC: 1.56 mg/L
Staphylococcus aureus [19]
  MIC: 1.56 mg/L
Staphylococcus aureus [20]
  MIC: 1.56 mg/L
[21]
  Activity: 87.85%
Staphylococcus aureus [22]
  MIC: 1.56 mg/L
J774.A1 [23]
  Activity: 56%
Staphylococcus aureus [24]
  MIC: 1.56 mg/L
HEK293 [25]
  Activity: 68.26%
Staphylococcus aureus [26]
  MIC: 1.56 mg/L
HEK293 [27]
  Activity: 84.69%
J774.A1 [28]
  Activity: 100.34%
Staphylococcus aureus [29]
  MIC: 1.56 mg/L (≈ 2.98 µM)
[30]
  HC50: 226 µg/mL
Staphylococcus aureus [31]
  Activity: inactive
HEK293 [32]
  Activity: 92.66%
J774.A1 [33]
  Activity: 85.85%
Staphylococcus aureus [34]
  MIC: 1.56 mg/L
Staphylococcus aureus [35]
  MIC: 1.56 mg/L (≈ 2.98 µM)
HEK293 [36]
  Activity: 94.48%
Staphylococcus aureus [37]
  MIC: 1.56 mg/L
[38]
  Activity: 64.79%
Staphylococcus aureus [39]
  log reduction: 3 log10 CFU/mL
HEK293 [40]
  Activity: 76.79%
J774.A1 [41]
  Activity: 77.46%
Staphylococcus aureus [42]
  MIC: 1.56 mg/L
[43]
  Activity: 79.43%
Staphylococcus aureus [44]
  Activity: Active
Staphylococcus aureus [45]
  MIC: 1.56 mg/L
Staphylococcus aureus [46]
  MIC: 1.56 mg/L (≈ 2.98 µM)
